Key:
Type in all cases: cell-based, human
ACP2 = experiment: DNA microarray, ACP2 expression in fibroblasts exposed to genistein; conditions: for ACP2 fold change Average: 48 h vs DMSO
Procedure: (§1) The experiments were conducted to characterise the transcriptomic profile of human fibroblast cells exposed to genistein, and in particular to determine the expression of genes encoding lysosomal enzymes involved in metabolism (i.e. synthesis and degradation) of organic substances. The absence or deficiency of these enzymes' activity is responsible for occurrence of various lysosomal storage diseases (LSD) (including MPS). The tested hypothesis assumed that genistein influences the expression of many genes, among which there are genes coding for enzymes required in metabolism of compounds, which are pathologically stored in LSD. The results provide important information regarding genistein action on the molecular level within the range of gene expression modulation by this substance. The experiment was conducted in biological quintuplicates. Human dermal fibroblasts (HDFa) were exposed in vitro for 1, 24 or 48 hours to: 30, 60 or 100 μM of genistein; 0.05% DMSO (K1); or were untreated (control cells) (K2), and total RNA was isolated and analysed.
(§2) Fibroblast cells were grown in Dulbecco (DMEM) medium supplemented with 10% fetal bovine serum (FBS) with the addition of 1% antibiotics and anti-fungal agents at 37° C. in humidified atmosphere of 5% CO2, until the required confluency was obtained.
(§3) To determine the effect of tested compound on the transcriptom of the fibroblast cells, the growth medium was replaced with fresh medium, either non-supplemented (0.05% DMSO), or containing genistein (30, 60 or 100 μM, in 0.05% DMSO). The exposure was done for 1, 24 or 48 hours.
(§4) Total RNA was isolated from fibroblasts using High Pure RNA Isolation Kit according to the protocol and then it was quantitatively evaluated using Quant-It™ RiboGreen® Assay Kit.
(§5) Biotinylated cRNA was prepared using Ambion Total PrepAmp Kit for Illumina arrays.
(§6) Standard hybridization and quantitative image analysis procedures—Illumina hybridization protocol and Illumina scanning protocol, were used.
(§7) Processing of the results was done during data definition, including: background correction (using background subtraction method), normalization (using quantile normalization algorithm with Illumina GenomeStudio software package: gene expression module version 1.9.0) and summarization (using method, which sums the values of signal intensities from a set of probes).

ABCA9 = experiment: DNA microarray, ABCA9 expression in fibroblasts exposed to genistein; conditions: for ABCA9 fold change Average: 48 h vs DMSO
Procedure: as §1, §2, §3, §4, §5, §6, §7

GM2A = experiment: DNA microarray, GM2A expression in fibroblasts exposed to genistein; conditions: for GM2A fold change Average: 48 h vs DMSO
Procedure: as §1, §2, §3, §4, §5, §6, §7

GAA = experiment: DNA microarray, GAA expression in fibroblasts exposed to genistein; conditions: for GAA fold change Average: 48 h vs DMSO
Procedure: as §1, §2, §3, §4, §5, §6, §7

NPC1 = experiment: DNA microarray, NPC1 expression in fibroblasts exposed to genistein; conditions: for NPC1 fold change Average: 48 h vs DMSO
Procedure: as §1, §2, §3, §4, §5, §6, §7

TPP1 = experiment: DNA microarray, TPP1 expression in fibroblasts exposed to genistein; conditions: for TPP1 fold change Average: 48 h vs DMSO
Procedure: as §1, §2, §3, §4, §5, §6, §7

MANBA = experiment: DNA microarray, MANBA expression in fibroblasts exposed to genistein; conditions: for MANBA fold change Average: 48 h vs DMSO
Procedure: as §1, §2, §3, §4, §5, §6, §7

TBP = experiment: DNA microarray, TBP reference gene expression in fibroblasts exposed to genistein
Procedure: as §1, §2, §3, §4, §5, §6, §7

CTNS = experiment: DNA microarray, CTNS expression in fibroblasts exposed to genistein; conditions: for CTNS fold change Average: 48 h vs DMSO
Procedure: as §1, §2, §3, §4, §5, §6, §7

LGMN = experiment: DNA microarray, LGMN expression in fibroblasts exposed to genistein; conditions: for LGMN fold change Average: 48 h vs DMSO
Procedure: as §1, §2, §3, §4, §5, §6, §7

ACP5 = experiment: DNA microarray, ACP5 expression in fibroblasts exposed to genistein; conditions: for ACP5 fold change Average: 48 h vs DMSO
Procedure: as §1, §2, §3, §4, §5, §6, §7

HYAL3 = experiment: DNA microarray, HYAL3 expression in fibroblasts exposed to genistein; conditions: for HYAL3 fold change Average: 48 h vs DMSO
Procedure: as §1, §2, §3, §4, §5, §6, §7

GNPTAB = experiment: DNA microarray, GNPTAB expression in fibroblasts exposed to genistein; conditions: for GNPTAB fold change Average: 48 h vs DMSO
Procedure: as §1, §2, §3, §4, §5, §6, §7

GNS = experiment: DNA microarray, GNS expression in fibroblasts exposed to genistein; conditions: for GNS fold change Average: 48 h vs DMSO
Procedure: as §1, §2, §3, §4, §5, §6, §7

FVT1 = experiment: DNA microarray, FVT1 expression in fibroblasts exposed to genistein; conditions: for FVT1 fold change Average: 48 h vs DMSO
Procedure: as §1, §2, §3, §4, §5, §6, §7

O=c1c(-c2ccc(O)cc2)coc2cc(O)cc(O)c12 [genistein, 4′,5,7-trihydroxy-3-phenylchromen-4-one]
ACP2 fold change Average 1h30/1hK1 (ACP2; 30 μM, 1 h vs 0.05% DMSO): 1.0116 fold change
ACP2 fold change Average (ACP2; 30 μM): 1.0451 fold change
ACP2 fold change Average 1h60/1hK1 (ACP2; 60 μM, 1 h vs 0.05% DMSO): 0.95 fold change
ACP2 fold change Average (ACP2; 60 μM): 1.063 fold change
ACP2 fold change Average 1h100/1hK1 (ACP2; 100 μM, 1 h vs 0.05% DMSO): 0.9804 fold change
ACP2 fold change Average (ACP2; 100 μM): 1.147 fold change
ABCA9 fold change Average 1h30/1hK1 (ABCA9; 30 μM, 1 h vs 0.05% DMSO): 1.0096 fold change
ABCA9 fold change Average (ABCA9; 30 μM): 1.3825 fold change
ABCA9 fold change Average 1h60/1hK1 (ABCA9; 60 μM, 1 h vs 0.05% DMSO): 1.129 fold change
ABCA9 fold change Average 1h100/1hK1 (ABCA9; 100 μM, 1 h vs 0.05% DMSO): 0.9831 fold change
ABCA9 fold change Average (ABCA9; 100 μM): 1.635 fold change
GM2A fold change Average 1h30/1hK1 (GM2A; 30 μM, 1 h vs 0.05% DMSO): 1.5655 fold change
GM2A fold change Average (GM2A; 30 μM): 1.0452 fold change
GM2A fold change Average 1h60/1hK1 (GM2A; 60 μM, 1 h vs 0.05% DMSO): 1.181 fold change
GM2A fold change Average (GM2A; 60 μM): 1.612 fold change
GM2A fold change Average 1h100/1hK1 (GM2A; 100 μM, 1 h vs 0.05% DMSO): 1.254 fold change
GM2A fold change Average (GM2A; 100 μM): 1.536 fold change
GAA fold change Average 1h30/1hK1 (GAA; 30 μM, 1 h vs 0.05% DMSO): 0.9686 fold change
GAA fold change Average 1h60/1hK1 (GAA; 60 μM, 1 h vs 0.05% DMSO): 1.087 fold change
GAA fold change Average (GAA; 60 μM): 1.763 fold change
GAA fold change Average 1h100/1hK1 (GAA; 100 μM, 1 h vs 0.05% DMSO): 0.935 fold change
GAA fold change Average (GAA; 100 μM): 1.955 fold change
NPC1 fold change Average 1h30/1hK1 (NPC1; 30 μM, 1 h vs 0.05% DMSO): 0.9973 fold change
NPC1 fold change Average (NPC1; 30 μM): 1.567 fold change
NPC1 fold change Average 1h60/1hK1 (NPC1; 60 μM, 1 h vs 0.05% DMSO): 1.035 fold change
NPC1 fold change Average (NPC1; 60 μM): 1.875 fold change
NPC1 fold change Average 1h100/1hK1 (NPC1; 100 μM, 1 h vs 0.05% DMSO): 0.9825 fold change
NPC1 fold change Average (NPC1; 100 μM): 2.269 fold change
TPP1 fold change Average 1h30/1hK1 (TPP1; 30 μM, 1 h vs 0.05% DMSO): 1.0655 fold change
TPP1 fold change Average (TPP1; 30 μM): 1.2672 fold change
TPP1 fold change Average 1h60/1hK1 (TPP1; 60 μM, 1 h vs 0.05% DMSO): 1.001 fold change
TPP1 fold change Average (TPP1; 60 μM): 1.505 fold change
TPP1 fold change Average 1h100/1hK1 (TPP1; 100 μM, 1 h vs 0.05% DMSO): 1.031 fold change
TPP1 fold change Average (TPP1; 100 μM): 1.603 fold change
MANBA fold change Average 1h30/1hK1 (MANBA; 30 μM, 1 h vs 0.05% DMSO): 1.0095 fold change
MANBA fold change Average (MANBA; 30 μM): 1.6385 fold change
MANBA fold change Average 1h60/1hK1 (MANBA; 60 μM, 1 h vs 0.05% DMSO): 1.041 fold change
MANBA fold change Average (MANBA; 60 μM): 2.173 fold change
MANBA fold change Average 1h100/1hK1 (MANBA; 100 μM, 1 h vs 0.05% DMSO): 0.9489 fold change
MANBA fold change Average (MANBA; 100 μM): 2.387 fold change
TBP fold change Average 1h30/1hK1 (TBP; 30 μM, 1 h vs 0.05% DMSO): 0.974 fold change
TBP fold change Average 24h30/24hK1 (TBP; 30 μM, 24 h vs 0.05% DMSO): 0.8816 fold change
TBP fold change Average 48h30/48hK1 (TBP; 30 μM, 48 h vs 0.05% DMSO): 0.9265 fold change
TBP fold change Average 1h60/1hK1 (TBP; 60 μM, 1 h vs 0.05% DMSO): 0.9183 fold change
TBP fold change Average 24h60/24hK1 (TBP; 60 μM, 24 h vs 0.05% DMSO): 0.7892 fold change
TBP fold change Average 48h60/48hK1 (TBP; 60 μM, 48 h vs 0.05% DMSO): 0.9926 fold change
TBP fold change Average 1h100/1hK1 (TBP; 100 μM, 1 h vs 0.05% DMSO): 0.9531 fold change
TBP fold change Average 24h100/24hK1 (TBP; 100 μM, 24 h vs 0.05% DMSO): 0.8303 fold change
TBP fold change Average 48h100/48hK1 (TBP; 100 μM, 48 h vs 0.05% DMSO): 0.8862 fold change
CTNS fold change Average 1h30/1hK1 (CTNS; 30 μM, 1 h vs 0.05% DMSO): 1.0024 fold change
CTNS fold change Average (CTNS; 30 μM): 1.5216 fold change
CTNS fold change Average 1h60/1hK1 (CTNS; 60 μM, 1 h vs 0.05% DMSO): 0.7997 fold change
CTNS fold change Average (CTNS; 60 μM): 1.577 fold change
CTNS fold change Average 1h100/1hK1 (CTNS; 100 μM, 1 h vs 0.05% DMSO): 0.7964 fold change
CTNS fold change Average (CTNS; 100 μM): 1.64 fold change
LGMN fold change Average 1h30/1hK1 (LGMN; 30 μM, 1 h vs 0.05% DMSO): 0.9392 fold change
LGMN fold change Average (LGMN; 30 μM): 1.3309 fold change
LGMN fold change Average 1h60/1hK1 (LGMN; 60 μM, 1 h vs 0.05% DMSO): 0.9963 fold change
LGMN fold change Average (LGMN; 60 μM): 1.61 fold change
LGMN fold change Average 1h100/1hK1 (LGMN; 100 μM, 1 h vs 0.05% DMSO): 0.8978 fold change
LGMN fold change Average (LGMN; 100 μM): 1.833 fold change
ACP5 fold change Average 1h30/1hK1 (ACP5; 30 μM, 1 h vs 0.05% DMSO): 0.9865 fold change
ACP5 fold change Average (ACP5; 30 μM): 1.6259 fold change
ACP5 fold change Average 1h60/1hK1 (ACP5; 60 μM, 1 h vs 0.05% DMSO): 1.066 fold change
ACP5 fold change Average (ACP5; 60 μM): 1.7507 fold change
ACP5 fold change Average 1h100/1hK1 (ACP5; 100 μM, 1 h vs 0.05% DMSO): 1.141 fold change
ACP5 fold change Average (ACP5; 100 μM): 1.763 fold change
HYAL3 fold change Average 1h30/1hK1 (HYAL3; 30 μM, 1 h vs 0.05% DMSO): 1.1887 fold change
HYAL3 fold change Average (HYAL3; 30 μM): 0.8605 fold change
HYAL3 fold change Average (HYAL3; 60 μM): 0.9492 fold change
HYAL3 fold change Average 1h100/1hK1 (HYAL3; 100 μM, 1 h vs 0.05% DMSO): 1.141 fold change
HYAL3 fold change Average (HYAL3; 100 μM): 1.001 fold change
GNPTAB fold change Average 1h30/1hK1 (GNPTAB; 30 μM, 1 h vs 0.05% DMSO): 0.7878 fold change
GNPTAB fold change Average (GNPTAB; 30 μM): 1.6393 fold change
GNPTAB fold change Average 1h60/1hK1 (GNPTAB; 60 μM, 1 h vs 0.05% DMSO): 1.235 fold change
GNPTAB fold change Average 1h100/1hK1 (GNPTAB; 100 μM, 1 h vs 0.05% DMSO): 0.8628 fold change
GNPTAB fold change Average (GNPTAB; 100 μM): 1.872 fold change
GNS fold change Average 1h30/1hK1 (GNS; 30 μM, 1 h vs 0.05% DMSO): 1.0062 fold change
GNS fold change Average (GNS; 30 μM): 1.2473 fold change
GNS fold change Average 1h60/1hK1 (GNS; 60 μM, 1 h vs 0.05% DMSO): 1.022 fold change
GNS fold change Average (GNS; 60 μM): 1.495 fold change
GNS fold change Average 1h100/1hK1 (GNS; 100 μM, 1 h vs 0.05% DMSO): 1.0219 fold change
GNS fold change Average (GNS; 100 μM): 1.418 fold change
FVT1 fold change Average 1h30/1hK1 (FVT1; 30 μM, 1 h vs 0.05% DMSO): 1.0953 fold change
FVT1 fold change Average (FVT1; 30 μM): 1.2441 fold change
FVT1 fold change Average 1h60/1hK1 (FVT1; 60 μM, 1 h vs 0.05% DMSO): 1.137 fold change
FVT1 fold change Average (FVT1; 60 μM): 1.603 fold change
FVT1 fold change Average 1h100/1hK1 (FVT1; 100 μM, 1 h vs 0.05% DMSO): 1.035 fold change
FVT1 fold change Average (FVT1; 100 μM): 1.422 fold change
